Experimental data published in patent US12364702B2, “Highly active sting protein agonist compound” (ADLAI NORTYE BIOPHARMA CO., LTD., priority 2018, dated 2025).

Key:
Assay type in all cases: cell-based
STING WT variant [1] = target: T1, STING WT variant (Homo sapiens, UniProt Q86WV6); experiment: SEAP reporter assay in HEK-Blue ISG KO-STING cells transfected with STING WT variant (Method 1); settings: 1 ng STING vector, compound 2.5 uM, 24 h, SEAP signal vs 0.5% DMSO
T1 construct: host or cells: HEK-Blue ISG KO-STING cells (Invivogen, hkb-kostg)
From the text: (§1) Activation of STING can be determined using a SEAP reporter assay in HEK-Blue™ ISG KO-STING cells (Invivogen, cat #hkb-kostg) transfected with plasmids expressing STING variants (WT & HAQ) (referred to WO2017/175147A1). STING variants (WT & HAQ) vector were constructed based on STING-232H vector (Origene, RC208418). GFP vector (VT2069) was bought from Youbio. The detailed protocol as follows: HEK-Blue™ ISG KO-STING cells were harvest and seeding into 96 well plate, the final cell number was 0.8×10^5 cells/well. Transfections were prepared using Lipofectamine 2000 (Invitrogen, Cat #11668-027) following the manufacturer's instructions (Lipo2000/DNA=1/10), 20 ul of transfection suspension containing 1 ng STING vector was added to cell culture plate and incubated at 37° C., 5% CO2 for 24 hours. After 24 hours' incubation, compounds were added at proper concentration, and the final DMSO concentration was 0.5%. After 24 h incubation, the supernatant was collected to detect SEAP signal using Great EscAPe SEAP chemiluminescence KIT (Clontech, cat #631738) and cells were collected to detect cell viability using CellTiter-Glo Luminescent Cell Viability Assay (Promega, cat #G7573) following the manufacturer's instructions. The data were described by the ratio of the stimulating signal of compounds to 0.5% DMSO.

STING = STING (Homo sapiens, UniProt Q86WV6); experiment: IFN-β secretion from THP1 by STING activation (hIFNβ ELISA); settings: THP1 cells, 24 h incubation, IFN-β in supernatant, top dose set according to solubility; for EC50: read-out: hIFNβ ELISA (EC50)
Method in brief: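 THP1 cells (2×10^6 cells/ml) exposed 24 h at 37° C, 5% CO2 to 8-point, 3-fold compound dilutions, 0.2% DMSO final, top dose set by solubility. Secreted IFN-β in supernatant measured by human IFNβ ELISA; EC50 from curve fitting.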

STING HAQ variant [2] = target: T2, STING HAQ variant (Homo sapiens, UniProt Q86WV6, G230A/R293Q/R71H); experiment: SEAP reporter assay in HEK-Blue ISG KO-STING cells transfected with STING HAQ variant (Method 1); settings: 1 ng STING vector, compound 5 uM, 24 h, SEAP signal vs 0.5% DMSO
T2 construct: host or cells: HEK-Blue ISG KO-STING cells (Invivogen, hkb-kostg)
From the text: as §1

STING HAQ variant [3] = target: T2, STING HAQ variant; experiment: SEAP reporter assay in HEK-Blue ISG KO-STING cells transfected with STING HAQ variant (Method 2); design: key: ratio of compound SEAP signal to 0.5% DMSO; settings: 0.0625 ng STING vector (HAQ variant), compound 5 uM, 24 h, SEAP signal vs 0.5% DMSO
From the text: as §1, with “96 well plate and the final” for “96 well plate, the final”, “1 ng (WT variant) or 0.0625 ng (HAQ variant) STING vector” for “1 ng STING vector”, “After 24 hours incubation, compounds” for “After 24 hours' incubation, compounds”, “proper concentration, the final” for “proper concentration, and the final”

STING WT variant [4] = target: T1, STING WT variant; experiment: SEAP reporter assay in HEK-Blue ISG KO-STING cells transfected with STING WT variant (Method 2); design: key: ratio of compound SEAP signal to 0.5% DMSO; settings: 1 ng STING vector (WT variant), compound 2.5 uM, 24 h, SEAP signal vs 0.5% DMSO
From the text: as §1, with “96 well plate and the final” for “96 well plate, the final”, “1 ng (WT variant) or 0.0625 ng (HAQ variant) STING vector” for “1 ng STING vector”, “After 24 hours incubation, compounds” for “After 24 hours' incubation, compounds”, “proper concentration, the final” for “proper concentration, and the final”

T2 sequence (Q86WV6 whole entry R71H/G230A/R293Q): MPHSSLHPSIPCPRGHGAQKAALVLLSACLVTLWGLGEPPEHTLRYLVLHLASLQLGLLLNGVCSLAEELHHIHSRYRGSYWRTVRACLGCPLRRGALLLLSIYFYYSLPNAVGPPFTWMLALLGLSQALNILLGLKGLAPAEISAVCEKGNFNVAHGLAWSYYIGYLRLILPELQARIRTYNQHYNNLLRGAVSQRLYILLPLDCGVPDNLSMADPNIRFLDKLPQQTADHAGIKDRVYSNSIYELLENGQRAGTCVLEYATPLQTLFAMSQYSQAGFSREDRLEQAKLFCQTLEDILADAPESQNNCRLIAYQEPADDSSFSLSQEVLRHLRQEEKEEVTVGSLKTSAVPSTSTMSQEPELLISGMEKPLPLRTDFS
STING, sequence (Q86WV6 whole entry): as the sequence (Q86WV6 whole entry R71H/G230A/R293Q) above, with H71R, A230G, Q293R counted along it

## CCn1nc(C)cc1C(=O)Nc1nc2cc(C(N)=O)cc(OCCCN(C)C(=O)CN3CCOCC3)c2n1CCC[C@H]1COc2cc(C(N)=O)cc3nc(NC(=O)c4cc(C)nn4CC)n1c23 [Example 29, (S)-3-(3-(5-carbamoyl-2-(1-ethyl-3-methyl-1H-pyrazole-5-carboxamido)-7-(3-(N-methyl-2-morpholinoacetamido)propoxy)-1H-benzo[d]imidazol-1-yl)propyl)-2-(1-ethyl-3-methyl-1H-pyrazole-5-carboxamido)-3,4-dihydro-5-oxa-1,2a-diazaacenaphthylene-7-carboxamide]
STING WT variant [1]
  Fold change related to DMSO control WT: 1.99
STING
  EC50: 6.7 µM
STING HAQ variant [2]
  Fold change related to DMSO control HAQ: 27.10

## CCn1nc(C)cc1C(=O)Nc1nc2cc(C(N)=O)cc(OCCCNS(C)(=O)=O)c2n1CCC[C@H]1COc2cc(C(N)=O)cc3nc(NC(=O)c4cc(C)nn4CC)n1c23 [Example 30, (S)-3-(3-(5-carbamoyl-2-(1-ethyl-3-methyl-1H-pyrazole-5-carboxamido)-7-(3-(methylsulfonamido)propoxy)-1H-benzo[d]imidazol-1-yl)propyl)-2-(1-ethyl-3-methyl-1H-pyrazole-5-carboxamido)-3,4-dihydro-5-oxa-1,2a-diazaacenaphthylene-7-carboxamide]
STING WT variant [1]
  Fold change related to DMSO control WT: 1.96
STING
  EC50: > 13 µM
STING HAQ variant [2]
  Fold change related to DMSO control HAQ: 33.34

## CCn1nc(C)cc1C(=O)Nc1nc2cc(C(N)=O)cc(OCCCNC(=O)C[C@H]3COCCN3)c2n1CCC[C@H]1COc2cc(C(N)=O)cc3nc(NC(=O)c4cc(C)nn4CC)n1c23 [Example 33]
STING WT variant [1]
  Fold change related to DMSO control WT: 1.88
STING
  EC50: 12 µM
STING HAQ variant [2]
  Fold change related to DMSO control HAQ: 16.31

## CCn1nc(C)cc1C(=O)Nc1nc2cc(C(N)=O)cc(OCCCNC(=O)CN3CCNCC3)c2n1CCC[C@H]1COc2cc(C(N)=O)cc3nc(NC(=O)c4cc(C)nn4CC)n1c23 [Example 34, (S)-3-(3-(6-carbamoyl-2-(1-ethyl-3-methyl-1H-pyrazole-5-carboxamido)-4-(3-(2-(piperazin-1-yl)acetamido)propoxy)-1H-benzo[d]imidazol-1-yl)propyl)-2-(1-ethyl-3-methyl-1H-pyrazole-5-carboxamido)-3,4-dihydro-5-oxa-1,2a-diazaacenaphthylene-7-carboxamide]
STING WT variant [1]
  Fold change related to DMSO control WT: 1.51
STING
  EC50: 9.1 µM
STING HAQ variant [2]
  Fold change related to DMSO control HAQ: 6.51

## CCn1nc(C)cc1C(=O)Nc1nc2cc(C(N)=O)cc(OCCCS(C)(=O)=O)c2n1CCC[C@H]1COc2cc(C(N)=O)cc3nc(NC(=O)c4cc(C)nn4CC)n1c23 [Example 37, (S)-3-(3-(5-carbamoyl-2-(1-ethyl-3-methyl-1H-pyrazole-5-carboxamido)-7-(3-(methylsulfonyl)propoxy)-1H-benzo[d]imidazol-1-yl)propyl)-2-(1-ethyl-3-methyl-1H-pyrazole-5-carboxamido)-3,4-dihydro-5-oxa-1,2a-diazaacenaphthylene-7-carboxamide]
STING WT variant [1]
  Fold change related to DMSO control WT: 2.14
STING
  hIFNβ ELISA (EC50, μM): inactive
STING HAQ variant [2]
  Fold change related to DMSO control HAQ: 23.71

## CCn1nc(C)cc1C(=O)Nc1nc2cc(C(N)=O)cc(OCC[C@@H](O)CO)c2n1CCC[C@H]1COc2cc(C(N)=O)cc3nc(NC(=O)c4cc(C)nn4CC)n1c23 [Example 38, (S)-3-(3-(5-carbamoyl-7-((R)-3,4-dihydroxybutoxy)-2-(1-ethyl-3-methyl-1H-pyrazole-5-carboxamido)-1H-benzo[d]imidazol-1-yl)propyl)-2-(1-ethyl-3-methyl-1H-pyrazole-5-carboxamido)-3,4-dihydro-5-oxa-1,2a-diazaacenaphthylene-7-carboxamide]
STING WT variant [1]
  Fold change related to DMSO control WT: 2.15
STING
  hIFNβ ELISA (EC50, μM): inactive
STING HAQ variant [2]
  Fold change related to DMSO control HAQ: 18.05

## CCn1nc(C)cc1C(=O)Nc1nc2cc(C(N)=O)cc(OCCCNC(=O)CN3CC[C@@H](OC)C3)c2n1CCC[C@H]1COc2cc(C(N)=O)cc3nc(NC(=O)c4cc(C)nn4CC)n1c23 [Example 39, (S)-3-(3-(5-carbamoyl-2-(1-ethyl-3-methyl-1H-pyrazole-5-carboxamido)-7-(3-(2-((R)-3-methoxypyrrolidin-1-yl)acetamido)propoxy)-1H-benzo[d]imidazol-1-yl)propyl)-2-(1-ethyl-3-methyl-1H-pyrazole-5-carboxamido)-3,4-dihydro-5-oxa-1,2a-diazaacenaphthylene-7-carboxamide]
STING HAQ variant [3]
  Fold change related to DMSO control HAQ: 16.45
STING WT variant [4]
  Fold change related to DMSO control WT: 11.39
STING
  EC50: 2.2 µM

## CCn1nc(C)cc1C(=O)Nc1nc2cc(C(N)=O)cc(OCCCNC(=O)CN3CCC(O)CC3)c2n1CCC[C@H]1COc2cc(C(N)=O)cc3nc(NC(=O)c4cc(C)nn4CC)n1c23 [Example 40, (S)-3-(3-(5-carbamoyl-2-(1-ethyl-3-methyl-1H-pyrazole-5-carboxamido)-7-(3-(2-(4-hydroxypiperidin-1-yl)acetamido)propoxy)-1H-benzo[d]imidazol-1-yl)propyl)-2-(1-ethyl-3-methyl-1H-pyrazole-5-carboxamido)-3,4-dihydro-5-oxa-1,2a-diazaacenaphthylene-7-carboxamide]
STING HAQ variant [3]
  Fold change related to DMSO control HAQ: 13.94
STING WT variant [4]
  Fold change related to DMSO control WT: 7.82
STING
  EC50: 4.7 µM

## CCn1nc(C)cc1C(=O)Nc1nc2cc(C(N)=O)cc(OCCCNC(=O)CN3CC(COC)C3)c2n1CCC[C@H]1COc2cc(C(N)=O)cc3nc(NC(=O)c4cc(C)nn4CC)n1c23 [Example 41, (S)-3-(3-(5-Carbamoyl-2-(1-ethyl-3-methyl-1H-pyrazole-5-carboxamido)-7-(3-(2-(3-(methoxymethyl)azetidin-1-yl)acetamido)propoxy)-1H-benzo[d]imidazol-1-yl)propyl)-2-(1-ethyl-3-methyl-1H-pyrazole-5-carboxamido)-3,4-dihydro-5-oxa-1,2a-diazaacenaphthylene-7-carboxamide]
STING HAQ variant [3]
  Fold change related to DMSO control HAQ: 19.38
STING WT variant [4]
  Fold change related to DMSO control WT: 7.15
STING
  EC50: 8.8 µM

## CCn1nc(C)cc1C(=O)Nc1nc2cc(C(N)=O)cc(OCCCNC(=O)CN3CCC(OC)CC3)c2n1CCC[C@H]1COc2cc(C(N)=O)cc3nc(NC(=O)c4cc(C)nn4CC)n1c23 [Example 42, (S)-3-(3-(5-carbamoyl-2-(1-ethyl-3-methyl-1H-pyrazole-5-carboxamido)-7-(3-(2-(4-methoxypiperidin-1-yl)acetamido)propoxy)-1H-benzo[d]imidazol-1-yl)propyl)-2-(1-ethyl-3-methyl-1H-pyrazole-5-carboxamido)-3,4-dihydro-5-oxa-1,2a-diazaacenaphthylene-7-carboxamide]
STING HAQ variant [3]
  Fold change related to DMSO control HAQ: 17.42
STING WT variant [4]
  Fold change related to DMSO control WT: 10.04
STING
  EC50: 2.2 µM
